In ChEMBL document CHEMBL3763052, “Novel N-acyl-carbazole derivatives as 5-HT7R antagonists” (Eur J Med Chem, 2016):

Assays:
[1] = biological target: T1, 5-hydroxytryptamine receptor 7 (Homo sapiens, UniProt P34969); experiment: Displacement of [3H]LSD from 5-HT7 receptor (unknown origin) expressed in CHO-K1 cells by liquid scintillation counting method; type: cell-based
[2] = biological target: T2, 5-hydroxytryptamine receptor 6 (Homo sapiens, UniProt P50406); experiment: Binding affinity to recombinant 5-HT6 receptor (unknown origin) at 10 uM after 1.5 hrs by radioligand displacement assay
Homo sapiens [3] = organism: Homo sapiens; experiment: Selectivity index, ratio of Ki for recombinant 5-HT5 receptor (unknown origin) to Ki for recombinant 5-HT7 receptor (unknown origin)
[4] = biological target: T3, 5-hydroxytryptamine receptor 2A (Homo sapiens, UniProt P28223); experiment: Binding affinity to recombinant 5-HT2A receptor (unknown origin) after 1.5 hrs by radioligand displacement assay
[5] = biological target: 5-hydroxytryptamine receptor 5A (Homo sapiens, UniProt P47898); experiment: Binding affinity to recombinant 5-HT5 receptor (unknown origin) after 1.5 hrs by radioligand displacement assay
Homo sapiens [6] = organism: Homo sapiens; experiment: Selectivity index, ratio of Ki for recombinant 5-HT2B receptor (unknown origin) to Ki for recombinant 5-HT7 receptor (unknown origin)
[7] = biological target: T1, 5-hydroxytryptamine receptor 7; experiment: Binding affinity to recombinant 5-HT7 receptor (unknown origin) after 1.5 hrs by radioligand displacement assay
Homo sapiens [8] = organism: Homo sapiens; experiment: Selectivity index, ratio of Ki for recombinant 5-HT2C receptor (unknown origin) to Ki for recombinant 5-HT7 receptor (unknown origin)
[9] = biological target: 5-hydroxytryptamine receptor 2B (Homo sapiens, UniProt P41595); experiment: Binding affinity to recombinant 5-HT2B receptor (unknown origin) after 1.5 hrs by radioligand displacement assay
[10] = biological target: T4, 5-hydroxytryptamine receptor 3A (Homo sapiens) (UniProt P46098); experiment: Binding affinity to recombinant 5-HT3 receptor (unknown origin) at 10 uM after 1.5 hrs by radioligand displacement assay
T4 sequence (whole entry): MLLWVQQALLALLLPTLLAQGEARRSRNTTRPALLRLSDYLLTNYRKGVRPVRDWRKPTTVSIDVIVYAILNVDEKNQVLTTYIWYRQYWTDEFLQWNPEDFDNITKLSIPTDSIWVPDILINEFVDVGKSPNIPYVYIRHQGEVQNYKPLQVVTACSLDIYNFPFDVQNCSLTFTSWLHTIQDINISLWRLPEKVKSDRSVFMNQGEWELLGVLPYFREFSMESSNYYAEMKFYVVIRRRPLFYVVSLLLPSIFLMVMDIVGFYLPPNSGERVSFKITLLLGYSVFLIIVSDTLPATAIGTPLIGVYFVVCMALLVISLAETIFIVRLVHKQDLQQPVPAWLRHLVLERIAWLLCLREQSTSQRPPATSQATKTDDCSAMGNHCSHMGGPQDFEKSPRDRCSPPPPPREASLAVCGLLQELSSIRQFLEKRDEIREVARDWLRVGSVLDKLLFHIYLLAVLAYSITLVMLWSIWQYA

Homo sapiens [11] = organism: Homo sapiens; experiment: Selectivity index, ratio of Ki for recombinant 5-HT1D receptor (unknown origin) to Ki for recombinant 5-HT7 receptor (unknown origin)
[12] = biological target: T5, 5-hydroxytryptamine receptor 2C (Homo sapiens, UniProt P28335); experiment: Binding affinity to recombinant 5-HT2C receptor (unknown origin) after 1.5 hrs by radioligand displacement assay
T5 sequence (P28335 whole entry): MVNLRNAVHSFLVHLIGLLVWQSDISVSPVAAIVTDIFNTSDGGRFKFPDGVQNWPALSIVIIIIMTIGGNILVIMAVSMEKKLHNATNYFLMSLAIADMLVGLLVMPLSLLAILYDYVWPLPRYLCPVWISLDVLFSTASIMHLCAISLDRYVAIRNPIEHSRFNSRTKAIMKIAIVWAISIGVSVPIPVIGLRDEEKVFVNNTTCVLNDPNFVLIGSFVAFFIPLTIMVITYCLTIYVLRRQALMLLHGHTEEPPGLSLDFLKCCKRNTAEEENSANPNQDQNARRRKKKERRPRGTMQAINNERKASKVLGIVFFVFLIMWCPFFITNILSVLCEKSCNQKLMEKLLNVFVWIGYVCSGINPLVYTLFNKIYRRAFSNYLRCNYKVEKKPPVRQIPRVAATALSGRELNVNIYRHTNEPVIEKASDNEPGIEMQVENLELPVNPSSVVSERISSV

Homo sapiens [13] = organism: Homo sapiens; experiment: Selectivity index, ratio of Ki for recombinant 5-HT1A receptor (unknown origin) to Ki for recombinant 5-HT7 receptor (unknown origin)
[14] = biological target: 5-hydroxytryptamine receptor 1D (Homo sapiens, UniProt P28221); experiment: Binding affinity to recombinant 5-HT1D receptor (unknown origin) after 1.5 hrs by radioligand displacement assay
[15] = biological target: T6, 5-hydroxytryptamine receptor 1A (Homo sapiens, UniProt P08908); experiment: Binding affinity to recombinant 5-HT1A receptor (unknown origin) after 1.5 hrs by radioligand displacement assay
T6 sequence (P08908 whole entry): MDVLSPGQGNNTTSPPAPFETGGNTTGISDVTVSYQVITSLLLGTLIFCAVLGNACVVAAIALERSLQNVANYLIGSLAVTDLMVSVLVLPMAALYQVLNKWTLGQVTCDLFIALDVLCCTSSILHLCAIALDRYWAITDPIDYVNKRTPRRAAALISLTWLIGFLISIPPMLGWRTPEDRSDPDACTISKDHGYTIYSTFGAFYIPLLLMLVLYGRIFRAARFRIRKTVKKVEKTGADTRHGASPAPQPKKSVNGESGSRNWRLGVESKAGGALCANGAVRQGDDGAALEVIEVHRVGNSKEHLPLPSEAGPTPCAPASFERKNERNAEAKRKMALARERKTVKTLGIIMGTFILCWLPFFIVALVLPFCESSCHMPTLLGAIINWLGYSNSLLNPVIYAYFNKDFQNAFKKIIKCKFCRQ

[16] = biological target: T7, 5-hydroxytryptamine receptor 1B (Homo sapiens, UniProt P28222); experiment: Binding affinity to recombinant 5-HT1B receptor (unknown origin) after 1.5 hrs by radioligand displacement assay
[17] = biological target: T1, 5-hydroxytryptamine receptor 7; experiment: Displacement of [3H]LSD from 5-HT7 receptor (unknown origin) expressed in CHO-K1 cells at 10 uM by liquid scintillation counting method; type: cell-based
Mus musculus = experiment: Antidepressant activity in ICR mouse assessed as immobility time at 50 mg/kg, iv administered 30 mins before testing by forced swim test (reference value: 159.1 sec); type: functional
[18] = biological target: T2, 5-hydroxytryptamine receptor 6; experiment: Binding affinity to recombinant 5-HT6 receptor (unknown origin) after 1.5 hrs by radioligand displacement assay
Homo sapiens [19] = organism: Homo sapiens; experiment: Selectivity index, ratio of Ki for recombinant 5-HT6 receptor (unknown origin) to Ki for recombinant 5-HT7 receptor (unknown origin)
[20] = biological target: T7, 5-hydroxytryptamine receptor 1B; experiment: Binding affinity to recombinant 5-HT1B receptor (unknown origin) at 10 uM after 1.5 hrs by radioligand displacement assay
[21] = biological target: T3, 5-hydroxytryptamine receptor 2A; experiment: Binding affinity to recombinant 5-HT2A receptor (unknown origin) at 10 uM after 1.5 hrs by radioligand displacement assay

T3 sequence (P28223 whole entry): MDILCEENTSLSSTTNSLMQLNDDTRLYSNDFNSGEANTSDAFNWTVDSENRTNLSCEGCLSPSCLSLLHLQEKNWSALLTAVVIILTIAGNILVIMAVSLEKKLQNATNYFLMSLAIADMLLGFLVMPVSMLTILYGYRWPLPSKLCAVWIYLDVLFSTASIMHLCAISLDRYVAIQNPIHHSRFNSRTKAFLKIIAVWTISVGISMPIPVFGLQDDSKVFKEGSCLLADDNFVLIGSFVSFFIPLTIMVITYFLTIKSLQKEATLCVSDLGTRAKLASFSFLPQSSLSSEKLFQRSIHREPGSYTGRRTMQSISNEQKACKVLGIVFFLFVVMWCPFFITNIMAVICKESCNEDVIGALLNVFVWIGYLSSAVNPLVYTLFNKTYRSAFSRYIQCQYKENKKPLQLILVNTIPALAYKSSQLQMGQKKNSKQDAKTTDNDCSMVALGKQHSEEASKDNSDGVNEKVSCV
5-hydroxytryptamine receptor 2B, sequence (P41595 whole entry): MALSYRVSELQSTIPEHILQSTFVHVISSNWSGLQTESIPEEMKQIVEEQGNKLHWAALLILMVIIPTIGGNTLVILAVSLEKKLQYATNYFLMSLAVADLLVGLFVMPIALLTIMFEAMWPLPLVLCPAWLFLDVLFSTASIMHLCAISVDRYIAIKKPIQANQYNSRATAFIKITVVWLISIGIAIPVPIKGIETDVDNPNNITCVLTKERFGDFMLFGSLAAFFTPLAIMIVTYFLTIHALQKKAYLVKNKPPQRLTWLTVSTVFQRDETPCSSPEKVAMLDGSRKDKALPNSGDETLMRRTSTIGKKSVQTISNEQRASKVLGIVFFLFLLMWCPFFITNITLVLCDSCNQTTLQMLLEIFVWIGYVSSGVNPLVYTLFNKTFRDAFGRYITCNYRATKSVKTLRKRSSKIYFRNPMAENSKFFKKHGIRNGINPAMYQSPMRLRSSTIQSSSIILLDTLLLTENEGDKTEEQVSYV
T7 sequence (P28222 whole entry): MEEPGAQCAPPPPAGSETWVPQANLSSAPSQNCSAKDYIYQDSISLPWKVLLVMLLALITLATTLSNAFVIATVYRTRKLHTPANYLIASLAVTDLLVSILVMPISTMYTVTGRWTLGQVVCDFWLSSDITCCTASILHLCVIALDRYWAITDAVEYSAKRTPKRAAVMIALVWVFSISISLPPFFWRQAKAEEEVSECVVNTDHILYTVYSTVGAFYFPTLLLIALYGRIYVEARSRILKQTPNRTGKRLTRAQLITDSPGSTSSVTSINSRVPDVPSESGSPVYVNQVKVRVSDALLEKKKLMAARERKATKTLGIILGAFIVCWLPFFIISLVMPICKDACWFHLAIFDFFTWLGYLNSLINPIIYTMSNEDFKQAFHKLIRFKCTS
T2 sequence (P50406 whole entry): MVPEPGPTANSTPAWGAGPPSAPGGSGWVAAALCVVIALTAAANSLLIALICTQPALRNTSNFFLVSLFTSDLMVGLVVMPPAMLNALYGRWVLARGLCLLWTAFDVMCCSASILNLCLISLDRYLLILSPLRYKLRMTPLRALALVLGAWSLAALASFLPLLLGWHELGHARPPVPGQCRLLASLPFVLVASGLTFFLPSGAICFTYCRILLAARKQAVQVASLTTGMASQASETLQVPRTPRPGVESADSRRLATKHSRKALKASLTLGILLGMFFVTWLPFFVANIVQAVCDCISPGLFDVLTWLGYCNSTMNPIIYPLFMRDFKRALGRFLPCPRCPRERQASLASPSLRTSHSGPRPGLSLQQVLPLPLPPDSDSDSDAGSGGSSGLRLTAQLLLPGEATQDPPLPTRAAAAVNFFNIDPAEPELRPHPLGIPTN
5-hydroxytryptamine receptor 1D, sequence (P28221 whole entry): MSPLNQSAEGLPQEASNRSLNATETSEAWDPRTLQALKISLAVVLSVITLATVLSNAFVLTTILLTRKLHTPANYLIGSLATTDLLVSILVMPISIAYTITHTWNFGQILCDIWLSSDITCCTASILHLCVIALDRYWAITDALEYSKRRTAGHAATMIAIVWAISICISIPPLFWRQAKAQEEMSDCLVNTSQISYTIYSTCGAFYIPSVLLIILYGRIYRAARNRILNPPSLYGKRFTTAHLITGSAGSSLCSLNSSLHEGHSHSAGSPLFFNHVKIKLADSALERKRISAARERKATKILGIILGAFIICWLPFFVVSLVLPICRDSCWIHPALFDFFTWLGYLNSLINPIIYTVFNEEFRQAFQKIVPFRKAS
5-hydroxytryptamine receptor 5A, sequence (P47898 whole entry): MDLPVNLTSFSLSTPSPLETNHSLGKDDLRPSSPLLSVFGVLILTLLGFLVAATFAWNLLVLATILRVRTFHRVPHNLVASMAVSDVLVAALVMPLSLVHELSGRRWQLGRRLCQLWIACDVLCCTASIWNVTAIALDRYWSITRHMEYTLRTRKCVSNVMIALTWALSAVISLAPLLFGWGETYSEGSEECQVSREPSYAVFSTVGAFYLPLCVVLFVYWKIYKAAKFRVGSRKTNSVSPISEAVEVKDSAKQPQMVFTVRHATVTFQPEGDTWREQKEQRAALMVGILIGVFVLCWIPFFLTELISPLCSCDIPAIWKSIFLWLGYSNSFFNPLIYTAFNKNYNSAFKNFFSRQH
T1 sequence (P34969 whole entry): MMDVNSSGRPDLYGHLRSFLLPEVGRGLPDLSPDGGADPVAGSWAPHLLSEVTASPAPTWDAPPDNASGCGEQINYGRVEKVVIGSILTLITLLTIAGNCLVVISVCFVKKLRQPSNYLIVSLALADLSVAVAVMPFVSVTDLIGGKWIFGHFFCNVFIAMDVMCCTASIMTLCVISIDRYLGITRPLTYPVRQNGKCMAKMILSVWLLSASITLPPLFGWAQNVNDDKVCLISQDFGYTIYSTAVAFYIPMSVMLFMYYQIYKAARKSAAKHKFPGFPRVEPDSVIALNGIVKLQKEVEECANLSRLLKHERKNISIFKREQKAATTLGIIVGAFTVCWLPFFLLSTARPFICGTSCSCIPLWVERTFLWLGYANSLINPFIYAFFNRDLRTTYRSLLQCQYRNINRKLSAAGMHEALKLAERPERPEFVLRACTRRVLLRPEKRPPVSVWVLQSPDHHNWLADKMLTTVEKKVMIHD

SMILES: CC(=O)N1CCN(CCCCCC(=O)n2c3ccccc3c3ccccc32)CC1
- Ki [1]: 2340 nM

SMILES: COc1ccccc1N1CCN(CCCCC(=O)n2c3ccccc3c3ccccc32)CC1
- Ki [1]: 30 nM
- inhibition [2]: 44%
- Ratio Ki (Homo sapiens [3]): 0.17
- Ki [4]: 451 nM
- Ki [5]: 5 nM
- Ratio Ki (Homo sapiens [6]): 3.1
- Ki [7]: 30 nM
- Ratio Ki (Homo sapiens [8]): 39
- Ki [9]: 93 nM
- inhibition [10]: 24%
- Ratio Ki (Homo sapiens [11]): 15
- Ki [12]: 1170 nM
- Ratio Ki (Homo sapiens [13]): 4.1
- Ki [14]: 462 nM
- Ki [15]: 122 nM
- Ki [16]: 3740 nM

SMILES: O=C(CCCCN1CCC(c2ccccc2)CC1)n1c2ccccc2c2ccccc21
- Ki [1]: 153 nM

SMILES: CC(=O)N1CCN(CCCCC(=O)n2c3ccccc3c3ccccc32)CC1
- Ki [1]: 1070 nM

SMILES: O=C(CCCCN1CCOCC1)n1c2ccccc2c2ccccc21
- inhibition [17]: 47%

SMILES: CC1CCCN(CCCCCC(=O)n2c3ccccc3c3ccccc32)C1 (stereo unspecified)
- Ki [1]: 550 nM

SMILES: CN1CCN(CCCCCC(=O)n2c3ccccc3c3ccccc32)CC1
- Ki [1]: 1910 nM

SMILES: O=C(CCCCN1CCCCCC1)n1c2ccccc2c2ccccc21
- Ki [1]: 949 nM

SMILES: CNCCC(Oc1ccc(C(F)(F)F)cc1)c1ccccc1 (stereo unspecified) [FLUOXETINE]
- Time (Mus musculus): 83.9 s

SMILES: CC1CC(C)CN(CCCCC(=O)n2c3ccccc3c3ccccc32)C1 (stereo unspecified)
- Ki [1]: 1400 nM

SMILES: O=C(CCCCN1CCC(Cc2ccccc2)CC1)n1c2ccccc2c2ccccc21
- Ki [1]: 312 nM

SMILES: CC1CC(C)CN(CCCCCC(=O)n2c3ccccc3c3ccccc32)C1 (stereo unspecified)
- Ki [1]: 833 nM

SMILES: O=C(CCCCN1CCN(c2ccccc2O)CC1)n1c2ccccc2c2ccccc21
- Ki [18]: 879 nM
- Ki [1]: 86 nM
- Ratio Ki (Homo sapiens [19]): 10
- Ratio Ki (Homo sapiens [3]): 3.9
- inhibition [20]: 37%
- Ki [4]: 257 nM
- Ki [5]: 337 nM
- Ratio Ki (Homo sapiens [6]): 0.97
- Ratio Ki (Homo sapiens [8]): 18
- Ki [9]: 83 nM
- inhibition [10]: 41%
- Ratio Ki (Homo sapiens [11]): 16
- Ki [12]: 1520 nM
- Ratio Ki (Homo sapiens [13]): 0.26
- Ki [14]: 1400 nM
- Ki [15]: 22 nM

SMILES: CC1CCN(CCCCC(=O)n2c3ccccc3c3ccccc32)CC1
- Ki [1]: 592 nM

SMILES: O=C(CCCCN1CCCC1)n1c2ccccc2c2ccccc21
- Ki [1]: 2160 nM

SMILES: O=C(CCCCCN1CCOCC1)n1c2ccccc2c2ccccc21
- Ki [1]: 1310 nM

SMILES: O=C(CCCCCN1CCCC1)n1c2ccccc2c2ccccc21
- Ki [1]: 1050 nM

SMILES: O=C(CCCCCN1CCN(c2ccccc2O)CC1)n1c2ccccc2c2ccccc21
- Ki [18]: 595 nM
- Ki [1]: 38 nM
- inhibition [21]: 13%
- Ratio Ki (Homo sapiens [19]): 16
- Ratio Ki (Homo sapiens [3]): 25
- inhibition [20]: 48%
- Ki [5]: 933 nM
- Ratio Ki (Homo sapiens [6]): 2.7
- Ki [7]: 38 nM
- Ratio Ki (Homo sapiens [8]): 37
- Ki [9]: 101 nM
- inhibition [10]: 41%
- Ratio Ki (Homo sapiens [11]): 0.74
- Ki [12]: 1390 nM
- Ratio Ki (Homo sapiens [13]): 3.9
- Ki [14]: 28 nM
- Ki [15]: 148 nM

SMILES: O=C(CCCCCN1CCCCCC1)n1c2ccccc2c2ccccc21
- Ki [1]: 616 nM

SMILES: O=C(CCCCCN1CCC(c2ccccc2)CC1)n1c2ccccc2c2ccccc21
- Ki [1]: 157 nM

SMILES: CCCCN(C)CCCCCC(=O)n1c2ccccc2c2ccccc21
- Ki [1]: 680 nM

SMILES: O=C(CCCCCN1CCC(Cc2ccccc2)CC1)n1c2ccccc2c2ccccc21
- Ki [1]: 252 nM

SMILES: CN1CCN(CCCCC(=O)n2c3ccccc3c3ccccc32)CC1
- inhibition [17]: 40%

SMILES: CCCCN(C)CCCCC(=O)n1c2ccccc2c2ccccc21
- Ki [1]: 1280 nM

SMILES: CN(CCCCC(=O)n1c2ccccc2c2ccccc21)Cc1ccccc1
- Ki [1]: 513 nM
